Laboratory results from patent US20220073475A1, “5-MEMBERED HETEROARYL COMPOUNDS CONTAINING A HYDROXAMATE MOIETY AND THEIR USE” (UNIVERSITE DE LILLE, priority 2019, published 2022).

Columns and labels:
OPM2 cells = test: CFZ potency increase, ratio of CC50 of CFZ alone / with compound; format: cell-based, human
In short: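 OPM2 cells (12,000/well, 0.2% DMSO) treated with compound plus carfilzomib, with NucView 488 caspase-3/7 substrate (1 μM) and Hoechst 33342, 37 °C; confocal imaging over time gives % apoptotic cells. CFZ CC50 from 4-parameter fits alone and with compound; activity = CC50 alone / CC50 with compound.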

HeLa cells = test: as above; format: cell-based, human; conditions: compound at 7.5 μM
From the text: Human HeLa cells (uterine cervical carcinoma) are maintained in DMEM medium supplemented with GlutaMAX™, 10% fetal bovine serum and 1% penicillin-streptomycin.
(§1) We developed a cell-based, high content assay allowing the rapid detection and quantification of apoptotic cells. Caspase-3/7 activity was detected in real-time using the NucView™ 488 Caspase-3 substrate (Biotium), where the caspase-3/7 substrate peptide sequence DEVD is attached to a nucleic acid dye. The NucView™ 488 reagent crosses the plasma membrane to enter the cytoplasm, where the dye is unable to bind to DNA and remains non-fluorescent. Once the substrate has been cleaved by activated caspase-3/7 in apoptotic cells, the high-affinity DNA dye is released and migrates to the cell nucleus to stain the nucleus with a bright green fluorescence. All cell nuclei were also labeled with Hoechst 33342 (Ozyme).
(§2) For HeLa and MCF7 cells, briefly, cells were seeded in 384-microtiter well plate (1500 HeLa cells or 5000 MCF7 cells in 40 μL full medium per well) and let to attach overnight. Then the compound of the invention and the RE stressor were transferred to the cell culture plate using an Echo555 liquid handler (Labcyte) and 30 μL medium containing NucView™ and Hoechst 33342 were added. Final NucView™ 488 and Hoechst 33342 concentrations were 1 μM and 20 ng/mL, respectively. DMSO content was maintained at 0.2%. The microplates were incubated at 37° C. and 5% CO2 in an automated LiCONiC STR240 UB cell incubator, and images were acquired at various times at 405 nm and 488 nm with the high-resolution automated confocal microscope INCell 6000 (GE). Four fields per well were read with the 20× objective in a confocal mode. The BioCel workstation was managed by VWorks automation control software (Agilent).
(§3) For all cells, Columbus software (Perkin) was used for image quantification and analysis. First, Hoechst 33342 staining was used for an automated detection of nuclei, in which the mean fluorescence intensity for NucView™ 488 was quantified. Inspection of control cells at initial time was used to set a threshold level of NucView™ 488 fluorescence to separate non apoptotic cells from apoptotic cells. Finally, for each well, the result was expressed as percentage of apoptotic cells in the total cell population. CC50 values were calculated from concentration-response curves by a nonlinear regression analysis at four parameters using Excel Fit or GraphPad Prim softwares.
(§4) Activity=(% of apoptotic cells with cytotoxic agent in combination with compound of the invention)/(% of apoptotic cells with cytotoxic agent alone). • Ratio of CC50: The CC50 of the cytotoxic agent was calculated in absence and in presence of a compound of the invention.
(§5) Activity=(CC50 of agent alone)/(CC50 of agent with compound). • Ratio of AUC. Activity=(Area of the dose-concentration curve of cytotoxic agent combined with one concentration of compound)/(Area of the dose-concentration curve of cytotoxic agent alone). (Lehar J. et al, 2008 (molecular systems biology 4:215)).

MCF7 cells = test: as above; format: cell-based, human; conditions: MCF7, compound at 15 μM
Protocol: Human epithelial MCF7 cells (mammary gland adenocarcinoma) are maintained in EMEM medium supplemented with GlutaMAX™, 10% fetal bovine serum, 0.01 mg insulin and 1% penicillin-streptomycin.
as §1, §2, §3, §4, §5

[1] = OPM2, compound at 7.5 μM (Table 5)
[2] = OPM2, compound at 7.5 μM (Table 6)

| melting point [°C] | Compound | Activity: ratio (CC50 of CFZ alone)/(CC50 of CFZ in combination with compound of the invention) (OPM2 cells; [1]) | Activity: ratio (CC50 of CFZ alone)/(CC50 of CFZ in combination with compound of the invention) (OPM2 cells; [2]) | Activity: ratio (CC50 of CFZ alone)/(CC50 of CFZ in combination with compound of the invention) (HeLa cells) | Activity: ratio (CC50 of CFZ alone)/(CC50 of CFZ in combination with compound of the invention) (MCF7 cells) |
| --- | --- | --- | --- | --- | --- |
| 178.3 to 179.6 | COc1ccc(C(=O)NCc2cn([C@@H](CC(=O)NO)Cc3ccc4ccccc4c3)nn2)cc1 [Compound 2] | – | – | – | – |
| 150 to 151.4 | O=C(C[C@@H](Cc1ccc2ccccc2c1)n1cc(CNC(=O)CCc2ccccc2)nn1)NO [Compound 10, (R)—N-Hydroxy-4-naphthalen-2-yl-3-{4-[(3-phenyl-propionylamino)-methyl]-[1,2,3]triazol-1-yl}-butyramide] | – | – | – | – |
| 137.4 to 138.8 | O=C(C[C@@H](Cc1ccc2ccccc2c1)n1cc(CNS(=O)(=O)c2ccccc2)nn1)NO [Compound 7, (R)-3-[4-(Benzenesulfonylamino-methyl)-[1,2,3]triazol-1-yl]-N-hydroxy-4-naphthalen-2-yl-butyramide] | – | – | – | – |
| – | O=C(C[C@@H](C/C=C/c1ccccc1)n1cc(CNC(=O)c2ccc(F)c(F)c2)nn1)NO [Compound 75, 3,4-difluoro-N-[[1-[(E,1R)-1-[2-(hydroxyamino)-2-oxo-ethyl]-4-phenyl-but-3-enyl]triazol-4-yl]methyl]benzamide] | 1.7 | 1.7 | 4.3 | 2.1 |
| – | O=C(CC(Cc1ccc2ccccc2c1)c1nc(CNC(=O)c2ccc(F)cc2)no1)NO (stereo not drawn) [Compound 27, 4-fluoro-N-[5-(1-hydroxycarbamoylmethyl-2-naphthalen-2-yl-ethyl)-[1,2,4]oxadiazol-3-ylmethyl]-benzamide] | 2.4 | 2.4 | 3.0 | 2.8 |
| – | O=C(C[C@@H](Cc1ccc2ccccc2c1)n1cc(CC(=O)Nc2ccc(F)cc2)nn1)NO [Compound 58, 3-{4-[(4-Fluoro-phenylcarbamoyl)-methyl]-[1,2,3]triazol-1-yl}-N-hydroxy-4-naphthalen-2-yl-butyramide] | 1.4 | 1.4 | 2.7 | 2.0 |
| – | O=C(C[C@@H](Cc1ccc2ccccc2c1)n1cc(CNC(=O)c2ccc(F)c(F)c2)nn1)NO [Compound 54, 3,4-difluoro-N-[[1-[(1R)-3-(hydroxyamino)-1-(2-naphthylmethyl)-3-oxo-propyl]triazol-4-yl]methyl]benzamide] | 1.8 | 1.8 | 2.3 | 2.2 |
| – | O=C(NCc1cn([C@H](Cc2ccc3ccccc3c2)C(=O)NO)nn1)c1ccc(F)cc1 [Compound 43, (R)-4-Fluoro-N-[1-(1-hydroxycarbamoyl-2-naphthalen-2-yl-ethyl)-1H-[1,2,3]triazol-4-ylmethyl]-benzamide] | 1.7 | 1.7 | 2.6 | 2.6 |
| – | CC(NC(=O)c1ccc(F)c(F)c1)c1cn([C@@H](CC(=O)NO)Cc2ccc3ccccc3c2)nn1 (stereo in doubt) [Compound 86, 3,4-Difluoro-N-{1-[1-(1(R)-hydroxycarbamoylmethyl-2-naphthalen-2-yl-ethyl)-1H-[1,2,3]triazol-4-yl]-(R)-ethyl}-benzamide] | 1.7 | 1.7 | 2.6 | 1.7 |
